Measured values reported in ChEMBL document CHEMBL4725331, “An investigative study of antitumor properties of a novel thiazolo[4,5-d]pyrimidine small molecule revealing superior antitumor activity with CDK1 selectivity and potent pro-apoptotic properties” (Bioorg Med Chem, 2020).

Key:
K562 = test: Antiproliferative activity against human K562 cells assessed as inhibition of cell growth at 10 uM measured after 48 hrs by SRB assay relative to control; assay type: functional
NCI-H322M [1] = test: Antiproliferative activity against human NCI-H322M cells assessed as inhibition of cell growth at 10 uM measured after 48 hrs by SRB assay relative to control; assay type: functional
NCI-H460 = test: Antiproliferative activity against human NCI-H460 cells assessed as inhibition of cell growth at 10 uM measured after 48 hrs by SRB assay relative to control; assay type: functional
NCI-H522 = test: Antiproliferative activity against human NCI-H522 cells assessed as inhibition of cell growth at 10 uM measured after 48 hrs by SRB assay relative to control; assay type: functional
COLO 205 = test: Antiproliferative activity against human COLO 205 cells assessed as inhibition of cell growth at 10 uM measured after 48 hrs by SRB assay relative to control; assay type: functional
KM12 = test: Antiproliferative activity against human KM12 cells assessed as inhibition of cell growth at 10 uM measured after 48 hrs by SRB assay relative to control; assay type: functional
SNB-19 = test: Antiproliferative activity against human SNB-19 cells assessed as inhibition of cell growth at 10 uM measured after 48 hrs by SRB assay relative to control; assay type: functional
MDA-MB-435 = test: Antiproliferative activity against human MDA-MB-435 cells assessed as inhibition of cell growth at 10 uM measured after 48 hrs by SRB assay relative to control; assay type: functional
SK-MEL-2 = test: Antiproliferative activity against human SK-MEL-2 cells assessed as inhibition of cell growth at 10 uM measured after 48 hrs by SRB assay relative to control; assay type: functional
UACC-257 = test: Antiproliferative activity against human UACC-257 cells assessed as inhibition of cell growth at 10 uM measured after 48 hrs by SRB assay relative to control; assay type: functional
OVCAR-8 [2] = test: Antiproliferative activity against human OVCAR-8 cells assessed as inhibition of cell growth at 10 uM measured after 48 hrs by SRB assay relative to control; assay type: functional
RXF 393 = test: Antiproliferative activity against human RXF 393 cells assessed as inhibition of cell growth at 10 uM measured after 48 hrs by SRB assay relative to control; assay type: functional
SN12C = test: Antiproliferative activity against human SN12C cells assessed as inhibition of cell growth at 10 uM measured after 48 hrs by SRB assay relative to control; assay type: functional
Hs-578T = test: Antiproliferative activity against human Hs-578T cells assessed as inhibition of cell growth at 10 uM measured after 48 hrs by SRB assay relative to control; assay type: functional
CCRF-CEM = test: Antiproliferative activity against human CCRF-CEM cells assessed as inhibition of cell growth measured after 48 hrs by SRB assay; assay type: functional
EKVX = test: Antiproliferative activity against human EKVX cells assessed as inhibition of cell growth measured after 48 hrs by SRB assay; assay type: functional
NCI-H322M [3] = test: Antiproliferative activity against human NCI-H322M cells assessed as inhibition of cell growth measured after 48 hrs by SRB assay; assay type: functional
HCT-116 [4] = test: Antiproliferative activity against human HCT-116 cells assessed as inhibition of cell growth measured after 48 hrs by SRB assay; assay type: functional
SW-620 = test: Antiproliferative activity against human SW-620 cells assessed as inhibition of cell growth measured after 48 hrs by SRB assay; assay type: functional
SF-268 = test: Antiproliferative activity against human SF-268 cells assessed as inhibition of cell growth measured after 48 hrs by SRB assay; assay type: functional
SK-MEL-28 = test: Antiproliferative activity against human SK-MEL-28 cells assessed as inhibition of cell growth measured after 48 hrs by SRB assay; assay type: functional
OVCAR-4 = test: Antiproliferative activity against human OVCAR-4 cells assessed as inhibition of cell growth measured after 48 hrs by SRB assay; assay type: functional
OVCAR-8 [5] = test: Antiproliferative activity against human OVCAR-8 cells assessed as inhibition of cell growth measured after 48 hrs by SRB assay; assay type: functional
UO-31 = test: Antiproliferative activity against human UO-31 cells assessed as inhibition of cell growth measured after 48 hrs by SRB assay; assay type: functional
DU-145 = test: Antiproliferative activity against human DU-145 cells assessed as inhibition of cell growth measured after 48 hrs by SRB assay; assay type: functional
T47D = test: Antiproliferative activity against human T47D cells assessed as inhibition of cell growth measured after 48 hrs by SRB assay; assay type: functional
WI-38 [6] = test: Cell cycle arrest in human WI-38 cells assessed as accumulation in sub-G phase at IC50 concentration incubated for 48 hrs by propidium iodide staining based flow cytometry analysis (reference value: 1.35 %); conditions: wi-38, 48 h
WI-38 [7] = test: Cell cycle arrest in human WI-38 cells assessed as accumulation in G0/G1 phase at IC50 concentration incubated for 48 hrs by propidium iodide staining based flow cytometry analysis (reference value: 57.68 %); conditions: wi-38, 48 h
WI-38 [8] = test: Cell cycle arrest in human WI-38 cells assessed as accumulation in S phase phase at IC50 concentration incubated for 48 hrs by propidium iodide staining based flow cytometry analysis (reference value: 33.8 %); conditions: wi-38, 48 h
HCT-116 [9] = test: Induction of apoptosis in human HCT-116 cells assessed as early apoptotic cells at IC50 incubated for 48 hrs by annexin-V FITC and propidium iodide staining based flow cytometry analysis (reference value: 1.67 %); assay type: functional
HCT-116 [10] = test: Induction of apoptosis in human HCT-116 cells assessed as late apoptotic cells at IC50 incubated for 48 hrs by annexin-V FITC and propidium iodide staining based flow cytometry analysis (reference value: 0.28 %); assay type: functional
WI-38 [11] = test: Induction of apoptosis in human WI-38 cells assessed as late apoptotic cells at IC50 incubated for 48 hrs by annexin-V FITC and propidium iodide staining based flow cytometry analysis (reference value: 0.29 %); assay type: cell-based; conditions: wi-38, 48 h
HCT-116 [12] = test: Induction of apoptosis in human HCT116 cells assessed as up regulation of caspase-3 expression by RT-PCR analysis relative to untreated control; assay type: functional
[13] = Selectivity index, ratio of IC50 for human WI-38 cells to IC50 for human HCT116 cells after 48 hrs by MTT assay; assay type: toxicity; conditions: WI-38 cells versus HCT116 cells, read-out: Ratio IC50
[14] = read-out: LC50 (the source's name)

`COc1ccc(-n2c(=S)sc3c(Cl)nc(C)nc32)c(OC)c1` gave an inhibition at 10 µM (K562) of over 50%, an inhibition at 10 µM (NCI-H322M [1]) of over 50% and an inhibition at 10 µM (NCI-H460) of over 50%. It also gave an inhibition at 10 µM (NCI-H522) of over 50%, an inhibition at 10 µM (COLO 205) of over 50% and an inhibition at 10 µM (KM12) of over 50%. For the same compound, the inhibition at 10 µM (SNB-19) was over 50%, the inhibition at 10 µM (MDA-MB-435) was over 50% and the inhibition at 10 µM (SK-MEL-2) was over 50%. It also gave an inhibition at 10 µM (UACC-257) of over 50%, an inhibition at 10 µM (OVCAR-8 [2]) of over 50% and an inhibition at 10 µM (RXF 393) of over 50%. For the same compound, the inhibition at 10 µM (SN12C) was over 50%, the inhibition at 10 µM (Hs-578T) was over 50% and the GI50 (CCRF-CEM) was 2.69 µM. For the same compound, the TGI (CCRF-CEM) was 7.41 µM, the CC50 (CCRF-CEM; [14]) was over 100 µM and the GI50 (EKVX) was 4.57 µM. The TGI (EKVX) was 17 µM, the CC50 (EKVX; [14]) was 43.6 µM and the GI50 (NCI-H322M [3]) was 2.51 µM. For the same compound, the TGI (NCI-H322M [3]) was 6.46 µM, the CC50 (NCI-H322M [3]; [14]) was 22.4 µM and the GI50 (HCT-116 [4]) was 1.82 µM. The TGI (HCT-116 [4]) was 3.72 µM, the CC50 (HCT-116 [4]; [14]) was 7.59 µM and the GI50 (SW-620) was 2.57 µM. For the same compound, the TGI (SW-620) was 5.5 µM, the CC50 (SW-620; [14]) was 28.8 µM and the GI50 (SF-268) was 2.19 µM. The TGI (SF-268) was 5.25 µM, the CC50 (SF-268; [14]) was 17 µM and the GI50 (SK-MEL-28) was 2.19 µM. The TGI (SK-MEL-28) was 4.57 µM, the CC50 (SK-MEL-28; [14]) was 9.77 µM and the GI50 (OVCAR-4) was 4.68 µM. It also gave a TGI (OVCAR-4) of 15.5 µM, a CC50 (OVCAR-4; [14]) of 41.7 µM and a GI50 (OVCAR-8 [5]) of 2.69 µM. The TGI (OVCAR-8 [5]) was 7.41 µM, the CC50 (OVCAR-8 [5]; [14]) was 40.7 µM and the GI50 (UO-31) was 3.63 µM. The TGI (UO-31) was 15.5 µM, the CC50 (UO-31; [14]) was 39.8 µM and the GI50 (DU-145) was 1.86 µM. For the same compound, the TGI (DU-145) was 3.24 µM, the CC50 (DU-145; [14]) was 5.75 µM and the GI50 (T47D) was 6.46 µM. For the same compound, the TGI (T47D) was 21.9 µM, the CC50 (T47D; [14]) was 56.2 µM and the Activity (WI-38 [6]) was 6.1%. For the same compound, the Activity (WI-38 [7]) was 54.45%, the Activity (WI-38 [8]) was 26.39% and the Activity (HCT-116 [9]) was 5.38%. The Activity (HCT-116 [10]) was 12.78%, the Activity (WI-38 [11]) was 2.99% and the “fold change (FC)” value (HCT-116 [12]) was 11.2. For the same compound, the selectivity ratio at 48 h [13] was 4.
